What was measured:
[1] = test system: AIF release from isolated mitochondria; assay: AIF release from isolated mouse brain mitochondria; format: biochemical; conditions: compound 100 μM
Protocol: Mitochondria are prepared from mouse brains using flowing differential centrifugation procedures at 4° C. described previously. Homogenation buffer (50 μl) containing the prepared mitochondrial pellet is incubated with 25 μl of C3G at the desired concentration and the buffer added to achieve the final volume of 100 μl. The AIF release is then assessed in the presence of 100 μM of C3G in response to stimulation by GS-NO (50 μM) and H2O2 (50 μM).

[2] = test system: cyt c release from isolated mitochondria; assay: Cyt c release from isolated mouse brain mitochondria (immunoblot of supernatant); format: biochemical; conditions: for cyt c release in response to Ca2+: Ca2+ 100 μM stimulation
Protocol: (§1) Measurement of superoxide is performed in situ by superoxide-selective oxidative fluorescent dye dihydroethidium cell membranes (DHE) as previously described in [3]. DHE is freely permeable across cell membranes and fluoresces red when oxidized to ethidium bromide by superoxide. Unfixed frozen brain sections (30 um) are placed on glass slides and submerged in 10^−6 mol/L DHE (Sigma) in phosphate buffered saline (PBS) buffer, pH 7.4 and incubated at 37° C. for 30 min in a dark humidified container. Fluorescence in ischemic regions of brain sections is then detected by a Zeiss 210 confocal microscope with a 590-nn long-pass filter. The intensity of the fluorescence is analyzed and quantified by densitometry (NIH Image software, version 1.37). The study included three groups (sham-operated, pMCAO with vehicle-treated, and pMCAO with 2 mg/kg of CG-treated mice; (n=4). Four brain sections of each mouse and five fields in each section are measured to calculate mean levels of the brain superoxide. Mitochondria are prepared from adult mouse brains (6-8 weeks old) by using the Percoll gradient method, as previously described. After decapitation, the brain is quickly removed and washed in the isolation buffer (300 mM sucrose, 0.1 mM EGTA, 10 mM HEPES, pH 7.4). The brain is homogenized in 15 ml of buffer by using hand-held glass Potter-Elvehjem homogenizer with PTFE pestle. After 5 strokes, the cell debris and nuclei are centrifuged at 1330×g for 5 min. The supernatant is further centrifuged at 21,200×g for 10 min. Mitochondrial fraction is resuspended in 15% Percoll solution diluted in the isolation buffer and layered on top of a discontinuous Percoll gradient of 25/40%. The density gradient is centrifuged at 30,700×g for 10 min and mitochondria are collected from the interface between 25 and 40% Percoll solution, transferred to a new tube, and washed in 10 mL of isolation buffer by centrifugation at 6700×g for 10 min. The resulting pellet is suspended in the isolation buffer without EGTA and further diluted to 2 mg/mL in assay buffer for the cyt c release assay. 50 μL of mitochondria are then mixed with buffer or reagents in a final reaction volume of 100 L.
The assay buffer contains 125 mM KCI, 2 mM KH2PO4, 4 mM MgCl2 at pH 7.4, and 3 mM ATP, 0.8 mM ADP, 5 mM succinate and 2 μM rotenone for respiration. Mitochondrial suspensions diluted in the assay buffer are exposed to Ca^2+ (100 μM), S-nitrosoglutathione (GS—NO, 50 μM for nitric oxide generation) or H2O2 (50 μM for oxidative stress) in 10 min and centrifuged sat 12,000×g in 5 min. The supernatant is collected and 15 μL of aliquots are run on a SDS-PAGE gel to detect the release of cyt c by the immunoblotting assay. […]

superoxide = assay: In situ detection of brain superoxide by dihydroethidium (DHE) fluorescence in pMCAO mice; format: in vivo, mouse; conditions: pretreatment 2 mg/kg orally; 24 h after pMCAO; vs vehicle, p<0.05
Protocol: as §1, with “After 5 strokes, the cell debris and nuclei are centrifuged at 1330×g for 5 min. The supernatant is further centrifuged at 21,200×g for 10 min. Mitochondrial fraction is resuspended in 15% Percoll solution diluted in the isolation buffer and layered on top of a discontinuous Percoll gradient of 25/40%. The density gradient is centrifuged at 30,700×g for 10 min and mitochondria are collected from the interface between 25 and 40% Percoll solution, transferred to a new tube, and washed in 10 mL of isolation buffer by centrifugation at 6700×g for 10 min. The resulting pellet is suspended in the isolation buffer without EGTA and further diluted to 2 mg/mL in assay buffer for the cyt c release assay. 50 μL of mitochondria are then mixed with buffer or reagents in a final reaction volume of 100 L.” left out

pMCAO mice = assay: Mouse model of permanent middle cerebral artery occlusion (pMCAO): infarct volume (TTC staining) and 18-point neurological score at 24 h; format: in vivo; conditions: 24 h after pMCAO, vs vehicle
Protocol: C3G is isolated from Prunus cerasus fruits as previously described is dissolved in 0.9% normal saline (NS) and is administered by oral gavage to mice at 1-h before induction of pMCAO. Mice are randomly distributed into […] and treated with vehicle (n=10), or 1 mg/kg (n=8), 2 mg/kg (n=10), and 5 mg/kg (n=9) of C3G. The doses chosen in the present study are based on previous reports. Animals are euthanized at 24 h following pMCAO and infarct volumes are determined.
To evaluate the effect of a delayed treatment at 3 h following pMCAO, mice are randomly assigned to vehicle (n=11), or 2 mg/kg of C3G administered orally at 3 h after pMCAO supplemented by two additional doses of 2 mg/kg of C3G 3 h apart. […] Animals are euthanized at 24 h following pMCAO and infarct volumes and neurological outcomes are determined.
Neurological assessment of experimental mice is performed according to an 18 point-based scale at 1 h before induction of pMCAO and at 24 h following surgery. Brains are immediately removed following neurological assessment, rinsed in cold saline solution, cut into 1-mm-thick coronal sections, and processed for 2% 2,3,5-triphenylterazolium chloride (TTC) staining as previously described. The infarct volumes from individual sections are then summed to determine the total brain infarct volume and adjusted for edema (corrected infarct volume).
All data are expressed as mean values±S.E.M. The degree of statistical significance between groups is determined on the basis of Student t-test, One-way ANOVA test, followed by post hoc Fisher LSD test, and Kruskal-Wallis rank test. SigmaStat 3.0 software (SYSTAT Software Inc., Point Richmond, Calif.) is used to carry out the analysis. Statistical significance is defined at p<0.05.

## OC[C@H]1O[C@@H](Oc2cc3c(O)cc(O)cc3[o+]c2-c2ccc(O)c(O)c2)[C@H](O)[C@@H](O)[C@@H]1O [C3G, cyanidin-3-O-glucoside]
[1]; GS-NO 50 μM stimulation
  AIF release in response to GS-NO: partially prevented
[1]; H2O2 50 μM stimulation
  AIF release in response to H2O2: partially prevented
[2]; compound 1 μM
  cyt c release in response to Ca2+: no effect
[2]; compound 100 μM
  cyt c release in response to Ca2+: did not prevent
[2]; GS-NO 50 μM oxidative stress, compound 100 μM
  cyt c release in response to GS-NO: did not prevent
[2]; H2O2 50 μM oxidative stress, compound 100 μM
  cyt c release in response to H2O2: did not prevent
superoxide
  fluorescent density of brain superoxide in situ: significantly suppressed
pMCAO mice; 2 mg/kg oral gavage 1 h before pMCAO
  reduction of infarct volume: 27%
pMCAO mice; 5 mg/kg oral gavage 1 h before pMCAO
  reduction of infarct volume: 30%
pMCAO mice; delayed treatment: 2 mg/kg orally at 3 h after pMCAO plus two additional 2 mg/kg doses 3 h apart
  reduction in infarct size: 25%
pMCAO mice; pretreatment 2 mg/kg orally
  neurological performance (18-point score): statistically significant better neurological performance
pMCAO mice; pretreatment 5 mg/kg orally
  neurological performance (18-point score): statistically significant better neurological performance
pMCAO mice; treatment 2 mg/kg orally at 3 h after onset of ischemia plus two additional doses
  neurological functional performance (18-point score): significantly better

From patent US20130209441A1, “PROCESS FOR INHIBITION OF CEREBRAL DAMAGE ASSOCIATED WITH ISCHEMIA BY ANTHOCYANINS AND ANTHOCYANIDINS” (priority 2012, published 2013)
